# Results as given in US20230372375A1, “SGLT-2 INHIBITOR SARCOSINE CO-CRYSTAL, PREPARATION METHOD THEREFOR AND USE THEREOF” (Beijing Creatron Institute of Pharmaceutical Research Co. …, priority 2020, published 2023).
# Where “and” joins values, the source holds several entries; their conditions need not be identical. Equal values may be shown once. Read-outs that look alike come from different tables or passages of the source.
# Experiments:
# [1] = Fluidity (angle of repose, bulk density, tap density); details: BT-1000 powder comprehensive property tester
# [2] = Particle size by laser particle size analyzer; details: water as a dispersant
# [3] = Influencing factors test (physical and chemical stability) of dapagliflozin crystal forms, Test Example 1
# Experimental: The materials of the two crystal forms were directly exposed for 10 days to conditions of high temperature of 60° C.±2° C., light irradiation of 4500LX±500LX, and high humidity RH75%±5%, to investigate the physical stability and chemical stability of the two crystal forms.
# [4] = Comparison of sieving performance; details: 30 g, 80 mesh sieve, 1400 rpm, 20 minutes
# [5] = 1 g cannot be dissolved in 10000 ml; cited from earlier work
# [6] = Influencing factors test (physical and chemical stability) of canagliflozin crystal forms, Test Example 2; assay type: physicochemical; parameters: Impurity RRT0.73 content / Impurity RRT0.93 content / Impurity RRT1.12 content / Impurity RRT1.17 content / Impurity RRT2.25 content / Impurity RRT2.28 content / Impurity RRT0.57 content / Impurity RRT0.67 content: unit not given here
# Experimental: The canagliflozin-sarcosine cocrystal and canagliflozin hemihydrate (original crystal form) were tested for influencing factors.
# [7] = Water, 25° C., 24 h
# [8] = RH80%/25° C. 24 h
# [9] = physchem; details: thermodynamic from solid
# [10] = 60° C., directly exposed 10 days
# [11] = Light irradiation of 5000 Lx, 10 days
# [12] = Directly exposed at 60° C. for 10 days
# [13] = Directly exposed at 5000 LX for 10 days
# [14] = Directly exposed at RH75% for 10 days
# [15] = artificial gastric juice, 25 °C, simulated gastric fluid
# [16] = artificial intestinal juice, 25 °C, fassgf or other biorelevant
# [17] = citrate buffer of pH 3.0, 25 °C, pH 3, aqueous buffer
# [18] = hydrochloric acid of pH 1.0, 25 °C, pH 1, simulated gastric fluid
# [19] = phosphate buffer, 25 °C, pH 6.8, aqueous buffer
structure (smiles),measurement,setting,value
CCOc1ccc(Cc2cc([C@@H]3O[C@H](CO)[C@@H](O)[C@H](O)[C@H]3O)ccc2Cl)cc1.C[C@H](O)CO.O,Angle of repose (°),[1],48 °
same,Bulk density,[1],0.35 g/mL
same,Tap density,[1],0.53 g/mL
same,D10 (μm),[2],2.492 μm
same,D50 (μm),[2],61.55 μm
same,D90 (μm),[2],256.2 μm
same,"Impurity 6 (RT 21.65 min, RRT 1.06) content",[3]; 0 day,0.01
same,"Impurity 7 (RT 22.01 min, RRT 1.07) content",[3]; 0 day,0.01
same,"Impurity 10 (RT 33.01 min, RRT 1.61) content",[3]; 0 day,0.02
same,"Impurity 11 (RT 33.72 min, RRT 1.65) content",[3]; 0 day,0.01
same,"Impurity 12 (RT 34.69 min, RRT 1.69) content",[3]; 0 day,0.01
same,"Impurity 13 (RT 39.10 min, RRT 1.91) content",[3]; 0 day,0.02
same,Number of impurities,[3]; 0 day,6
same,Property (appearance),[3]; 0 day,White
same,Total content of impurities (%),[3]; 0 day,0.07%
same,"Impurity 1 (RT 7.45 min, RRT 0.36) content",[3]; [10],0.02
same,"Impurity 2 (RT 10.46 min, RRT 0.51) content",[3]; [10],0.14
same,"Impurity 3 (RT 14.06 min, RRT 0.69) content",[3]; [10],0.01
same,"Impurity 4 (RT 14.62 min, RRT 0.71) content",[3]; [10],0.21
same,"Impurity 5 (RT 16.02 min, RRT 0.78) content",[3]; [10],0.01
same,"Impurity 6 (RT 21.65 min, RRT 1.06) content",[3]; [10],0.01
same,"Impurity 7 (RT 22.01 min, RRT 1.07) content",[3]; [10],0.01
same,"Impurity 8 (RT 27.17 min, RRT 1.33) content",[3]; [10],0.02
same,"Impurity 9 (RT 30.53 min, RRT 1.49) content",[3]; [10],0.02
same,"Impurity 10 (RT 33.01 min, RRT 1.61) content",[3]; [10],0.02
same,"Impurity 11 (RT 33.72 min, RRT 1.65) content",[3]; [10],0.01
same,"Impurity 12 (RT 34.69 min, RRT 1.69) content",[3]; [10],0.01
same,"Impurity 13 (RT 39.10 min, RRT 1.91) content",[3]; [10],0.02
same,Number of impurities,[3]; [10],13
same,Property (appearance),[3]; [10],Melted
same,Total content of impurities (%),[3]; [10],0.50%
same,"Impurity 6 (RT 21.65 min, RRT 1.06) content",[3]; [11],0.01
same,"Impurity 7 (RT 22.01 min, RRT 1.07) content",[3]; [11],0.01
same,"Impurity 10 (RT 33.01 min, RRT 1.61) content",[3]; [11],0.02
same,"Impurity 11 (RT 33.72 min, RRT 1.65) content",[3]; [11],0.01
same,"Impurity 12 (RT 34.69 min, RRT 1.69) content",[3]; [11],0.01
same,"Impurity 13 (RT 39.10 min, RRT 1.91) content",[3]; [11],0.02
same,Number of impurities,[3]; [11],6
same,Total content of impurities (%),[3]; [11],0.08%
same,"Impurity 6 (RT 21.65 min, RRT 1.06) content","[3]; RH75%, 10 days",0.01
same,"Impurity 7 (RT 22.01 min, RRT 1.07) content","[3]; RH75%, 10 days",0.01
same,"Impurity 10 (RT 33.01 min, RRT 1.61) content","[3]; RH75%, 10 days",0.02
same,"Impurity 11 (RT 33.72 min, RRT 1.65) content","[3]; RH75%, 10 days",0.01
same,"Impurity 12 (RT 34.69 min, RRT 1.69) content","[3]; RH75%, 10 days",0.01
same,"Impurity 13 (RT 39.10 min, RRT 1.91) content","[3]; RH75%, 10 days",0.02
same,Number of impurities,"[3]; RH75%, 10 days",6
same,Total content of impurities (%),"[3]; RH75%, 10 days",0.08%
same,Average yield (%) after sieving,[4],86.0%
same,Situations after sieving,[4],Almost no large particles but a
same,"Yield after sieving (%, n = 3), single runs",[4]; listed as Dapagliflozin (S)-propylene glycol hydrate,"85.2, % and 87.7, % and 84.9%"
Cc1ccc([C@@H]2O[C@H](CO)[C@@H](O)[C@H](O)[C@H]2O)cc1Cc1ccc(-c2ccc(F)cc2)s1.O [canagliflozin hemihydrate],Solubility in water,[5],almost insoluble in water
same,Impurity RRT0.57 content,[6]; 0 day,0.01
same,Impurity RRT0.67 content,[6]; 0 day,0.01
same,Impurity RRT0.93 content,[6]; 0 day,0.01
same,Impurity RRT1.17 content,[6]; 0 day,0.01
same,Impurity RRT2.25 content,[6]; 0 day,0.01
same,Impurity RRT2.28 content,[6]; 0 day,0.01
same,Number of impurities,[6]; 0 day,6
same,Property (appearance),[6]; 0 day,White
same,Total content of impurities,[6]; 0 day,0.06%
same,Impurity RRT0.57 content,[6]; [12],0.01
same,Impurity RRT0.67 content,[6]; [12],0.01
same,Impurity RRT0.93 content,[6]; [12],0.01
same,Impurity RRT1.17 content,[6]; [12],0.01
same,Impurity RRT2.25 content,[6]; [12],0.01
same,Impurity RRT2.28 content,[6]; [12],0.01
same,Number of impurities,[6]; [12],6
same,Property (appearance),[6]; [12],White
same,Total content of impurities,[6]; [12],0.05%
same,Impurity RRT0.57 content,[6]; [13],0.02
same,Impurity RRT0.73 content,[6]; [13],0.01
same,Impurity RRT0.93 content,[6]; [13],0.01
same,Impurity RRT1.12 content,[6]; [13],0.01
same,Impurity RRT1.17 content,[6]; [13],0.01
same,Impurity RRT2.25 content,[6]; [13],0.01
same,Impurity RRT2.28 content,[6]; [13],0.01
same,Number of impurities,[6]; [13],7
same,Property (appearance),[6]; [13],White
same,Total content of impurities,[6]; [13],0.08%
same,Impurity RRT0.57 content,[6]; [14],0.01
same,Impurity RRT0.67 content,[6]; [14],0.01
same,Impurity RRT0.93 content,[6]; [14],0.02
same,Impurity RRT1.17 content,[6]; [14],0.01
same,Impurity RRT2.25 content,[6]; [14],0.01
same,Impurity RRT2.28 content,[6]; [14],0.01
same,Number of impurities,[6]; [14],6
same,Property (appearance),[6]; [14],White
same,Total content of impurities,[6]; [14],0.07%
same,Weight gained,[6]; high humidity of RH75% for 10 days,about 2.1%
same,Weight lost,[6]; high temperature of 60° C. for 10 days,about 1.0%
same,New impurities detected (number),[6]; light irradiation of 5000LX for 10 days,1
CCOc1ccc(Cc2cc([C@@H]3O[C@H](CO)[C@@H](O)[C@H](O)[C@H]3O)ccc2Cl)cc1 [dapagliflozin-sarcosine cocrystal],Solubility,[7],1590 µg/mL
same,Angle of repose (°),[1],40 °
same,Bulk density,[1],0.40 g/mL
same,Tap density,[1],0.58 g/mL
same,D10 (μm),[2],5.151 μm
same,D50 (μm),[2],24.83 μm
same,D90 (μm),[2],89.93 μm
same,"Impurity 10 (RT 33.01 min, RRT 1.61) content",[3]; 0 day,0.03
same,"Impurity 11 (RT 33.72 min, RRT 1.65) content",[3]; 0 day,0.01
same,"Impurity 12 (RT 34.69 min, RRT 1.69) content",[3]; 0 day,0.03
same,"Impurity 13 (RT 39.10 min, RRT 1.91) content",[3]; 0 day,0.01
same,Number of impurities,[3]; 0 day,4
same,Property (appearance),[3]; 0 day,White
same,Total content of impurities (%),[3]; 0 day,0.07%
same,"Impurity 10 (RT 33.01 min, RRT 1.61) content",[3]; [10],0.02
same,"Impurity 11 (RT 33.72 min, RRT 1.65) content",[3]; [10],0.01
same,"Impurity 12 (RT 34.69 min, RRT 1.69) content",[3]; [10],0.02
same,"Impurity 13 (RT 39.10 min, RRT 1.91) content",[3]; [10],0.01
same,Number of impurities,[3]; [10],4
same,Property (appearance),[3]; [10],White
same,Total content of impurities (%),[3]; [10],0.06%
same,"Impurity 10 (RT 33.01 min, RRT 1.61) content",[3]; [11],0.02
same,"Impurity 11 (RT 33.72 min, RRT 1.65) content",[3]; [11],0.01
same,"Impurity 12 (RT 34.69 min, RRT 1.69) content",[3]; [11],0.02
same,"Impurity 13 (RT 39.10 min, RRT 1.91) content",[3]; [11],0.01
same,Number of impurities,[3]; [11],4
same,Property (appearance),[3]; [11],White
same,Total content of impurities (%),[3]; [11],0.05%
same,"Impurity 10 (RT 33.01 min, RRT 1.61) content","[3]; RH75%, 10 days",0.02
same,"Impurity 11 (RT 33.72 min, RRT 1.65) content","[3]; RH75%, 10 days",0.01
same,"Impurity 12 (RT 34.69 min, RRT 1.69) content","[3]; RH75%, 10 days",0.02
same,"Impurity 13 (RT 39.10 min, RRT 1.91) content","[3]; RH75%, 10 days",0.01
same,Number of impurities,"[3]; RH75%, 10 days",4
same,Property (appearance),"[3]; RH75%, 10 days",White
same,Total content of impurities (%),"[3]; RH75%, 10 days",0.06%
same,"Number of impurities detected and total content of impurities detected, change","[3]; all the test conditions, 10 days vs 0 day",did not increase
same,Crystal form stability (XRPD),"[3]; each influencing factor (60° C., 5000LX, RH75%) for 10 days vs 0 day",did not change
same,Hygroscopicity,[8],does not have hygroscopicity
same,Percentage of weight gain (%),[8],0.00%
same,Average yield (%) after sieving,[4],91.8%
same,Situations after sieving,[4],Almost no large particles on the
same,"Yield after sieving (%, n = 3), single runs",[4],"93.6, % and 90.5, % and 91.3%"
same,solubility at 12 h,"[9]; acetate buffer of pH 4.0, 25 °C, pH 4, aqueous buffer",1640 µg/mL
same,solubility at 24 h,"[9]; acetate buffer, 25 °C, pH 4, aqueous buffer",1620 µg/mL
same,Solubility,"[9]; aqueous media of different pH, 25 °C, aqueous buffer",1400 to 1600 µg/mL
same,solubility at 12 h,[9]; [15],1560 µg/mL
same,solubility at 24 h,[9]; [15],1550 µg/mL
same,solubility at 12 h,[9]; [16],1400 µg/mL
same,solubility at 24 h,[9]; [16],1430 µg/mL
same,solubility at 12 h,[9]; [17],1620 µg/mL
same,solubility at 24 h,[9]; [17],1610 µg/mL
same,solubility at 12 h,[9]; [18],1600 µg/mL
same,solubility at 24 h,[9]; [18],1560 µg/mL
same,solubility at 12 h,[9]; [19],1580 µg/mL
same,solubility at 24 h,[9]; [19],1580 µg/mL
